According to US5124332A, “Substituted indoles as central nervous system agents” (Warner-Lambert Company, priority 1991, dated 1992):
Structures can show the parent of a compound that is named as a salt. Where two headings read alike, the source gives them in different places.

Experiments:
[1] = molecular target: T1, [^3 H]-spiroperidol binding (Homo sapiens, UniProt P14416); test: Inhibition of [^3 H]-spiroperidol binding in a receptor assay
T1 construct: from tissue; own knowledge of the cited 1985 method, which predates the cloning of D2)
T1 sequence (P14416 whole entry): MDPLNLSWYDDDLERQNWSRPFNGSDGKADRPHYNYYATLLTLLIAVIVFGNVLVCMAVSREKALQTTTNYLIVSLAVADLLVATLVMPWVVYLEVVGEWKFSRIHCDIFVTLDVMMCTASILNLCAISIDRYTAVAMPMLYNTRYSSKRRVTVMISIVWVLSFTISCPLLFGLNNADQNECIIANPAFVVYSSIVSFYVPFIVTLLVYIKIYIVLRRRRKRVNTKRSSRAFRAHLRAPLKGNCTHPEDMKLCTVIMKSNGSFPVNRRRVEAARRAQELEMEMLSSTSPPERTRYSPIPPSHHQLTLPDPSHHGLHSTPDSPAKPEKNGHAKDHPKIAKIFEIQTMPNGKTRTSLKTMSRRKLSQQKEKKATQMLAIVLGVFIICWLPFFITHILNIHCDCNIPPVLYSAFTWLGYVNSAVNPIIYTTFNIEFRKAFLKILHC
Protocol: (§1) The compounds of Formula I are valuable dopaminergic agents. […] Thus, the compounds of Formula I were tested for their ability to inhibit locomotor activity in mice according to the assay described by J. R. McLean, et al, Pharmacology, Biochemistry and Behavior, Volume 8, pages 97-99 (1978); and for their ability to inhibit [^3 H]-spiroperidol binding in a receptor assay described by D. Grigoriadis and P. Seman, Journal of Neurochemistry, Volume 44, pages 1925-1935 (1985). The above test methods are incorporated herein by reference. The data in the table show the dopaminergic activity of representative compounds of Formula I.

[2] = tested on: locomotor activity in mice; test: Inhibition of locomotor activity in mice; type: in vivo; settings: Mus musculus, read-out: Inhibition of Locomotor Activity in Mice ED50
Protocol: as §1

[3] = [^3 H]spiroperidol, receptor assay, read-out: Inhibition of [^3 H]Spiroperidol Binding IC50

SMILES	IC50 [1]	ED50 ([2]; ip)	IC50 [1, 3]	ED50 ([2]; mice, IP)
C1=C(c2ccccc2)CCN(CC[C@H]2CC[C@H](c3c[nH]c4ccccc43)CC2)C1 [Example 5, Trans 3-[4-[2-(3,6-dihydro-4-phenyl-1(2H)-pyridinyl)ethyl]cyclohexyl]-1H-indole]	12.1 nM	9 mg/kg		
C1=C(c2ccccc2)CCN(CC[C@H]2CC[C@@H](c3c[nH]c4ccccc43)CC2)C1 [Example 6, Cis 3-[4-[2-(3,6-dihydro-4-phenyl-1(2H)-pyridinyl)ethyl]cyclohexyl]-1H-indole]	39.3 nM	16.6 mg/kg		
c1ccc(N2CCN(CC[C@H]3CC[C@H](c4c[nH]c5ccccc54)CC3)CC2)nc1 [Example 1, trans 3-[4-[2-[4-(2-pyridinyl)-1-piperazinyl]ethyl]cyclohexyl]-1H-indole]			69.8 nM	1.4 mg/kg
c1cnc(N2CCN(CC[C@H]3CC[C@H](c4c[nH]c5ccccc54)CC3)CC2)nc1 [Example 3, Trans 3-[4-[2-[4-(2-pyrimidinyl)-1-piperazinyl]ethyl]cyclohexyl]-1H-indole,hydrochloride]			224 nM	3.3 mg/kg
C1=C(c2cccs2)CCN(CC[C@H]2CC[C@H](c3c[nH]c4ccccc43)CC2)C1 [Example 7, Trans 3-[4-[2-(3,6-dihydro-4-(2-thienyl)-1(2H)-pyridinyl)ethyl]cyclohexyl]-1H-indole]		11.7 mg/kg	878 nM	
C1=C(c2c[nH]c3ccccc23)CCC(CCN2CCN(c3ccccn3)CC2)C1 (stereo not shown) [Example 16]			270 nM	6.25 mg/kg
c1cnc(N2CCN(CC[C@H]3CC[C@@H](c4c[nH]c5ccccc54)CC3)CC2)nc1 [Example 4, Cis 3-[4-[2-[4-(2-pyrimidinyl)-1-piperazinyl]ethyl]cyclohexyl]-1H-indole, hydrochloride]			349 nM	8.6 mg/kg
c1ccc(N2CCN(CC[C@H]3CC[C@@H](c4c[nH]c5ccccc54)CC3)CC2)nc1 [Example 2, Cis 3-[4-[2-[4-(2-pyridinyl)-1-piperazinyl]ethyl]cyclohexyl]-1H-indole]			193 nM	4.7 mg/kg
